# Measured values taken from ChEMBL document CHEMBL1126512, “Synthesis and antitumor evaluation of water soluble taxol phosphates” (Bioorg Med Chem Lett, 1993).
# What was measured:
# Mus musculus [1] = assay: Antitumor activity against M109 tumor murine lung carcinoma infected mice after ip administration using DMSO an saline as vehicle at a dose of 30 mg/kg/inj; type: functional; conditions: route intraperitoneal
# Mus musculus [2] = assay: Antitumor activity against M109 tumor murine lung carcinoma infected mice after ip administration using DMSO an water as vehicle at a dose of 25 mg/kg/inj; type: functional; conditions: route intraperitoneal
# Mus musculus [3] = assay: Antitumor activity against M109 tumor murine lung carcinoma infected mice after ip administration using DMSO an saline as vehicle at a dose of 50 mg/kg/inj; type: functional; conditions: route intraperitoneal
# [4] = Solubility was determined; value ranges from 6-7; type: physicochemical
# [5] = Solubility was determined; type: physicochemical
# Mus musculus [6] = assay: Antitumor activity against M109 tumor murine lung carcinoma infected mice after ip administration using DMSO an water as vehicle at a dose of 50 mg/kg/inj; type: functional; conditions: route intraperitoneal
# Mus musculus [7] = assay: Antitumor activity against M109 tumor murine lung carcinoma infected mice after ip administration using DMSO an saline as vehicle at a dose of 25 mg/kg/inj; 1/6 mice cured; type: functional; conditions: route intraperitoneal
# Mus musculus [8] = assay: Antitumor activity against M109 tumor murine lung carcinoma infected mice after ip administration using DMSO an water as vehicle at a dose of 10 mg/kg/inj; type: functional; conditions: route intraperitoneal
# Mus musculus [9] = assay: Antitumor activity against M109 tumor murine lung carcinoma infected mice after ip administration using DMSO an water as vehicle at a dose of 25 mg/kg/inj; 1/6 mice cured; type: functional; conditions: route intraperitoneal
# Mus musculus [10] = assay: Antitumor activity against M109 tumor murine lung carcinoma infected mice after ip administration using DMSO an saline as vehicle at a dose of 10 mg/kg/inj; type: functional; conditions: route intraperitoneal
# Mus musculus [11] = assay: Antitumor activity against M109 tumor murine lung carcinoma infected mice after ip administration using DMSO an water as vehicle at a dose of 30 mg/kg/inj; type: functional; conditions: route intraperitoneal
compound,measurement,setting,value
CC(=O)O[C@H]1C(=O)[C@]2(C)[C@@H](OP(=O)([O-])[O-])C[C@H]3OC[C@@]3(OC(C)=O)[C@H]2[C@H](OC(=O)c2ccccc2)[C@]2(O)C[C@H](OC(=O)[C@H](OP(=O)([O-])[O-])[C@@H](NC(=O)c3ccccc3)c3ccccc3)C(C)=C1C2(C)C.[Na+].[Na+].[Na+].[Na+],Max T/C,Mus musculus [1],103
CC(=O)O[C@H]1C(=O)[C@@]2(C)[C@H]([C@H](OC(=O)c3ccccc3)[C@]3(O)C[C@H](OC(=O)[C@H](OP(=O)([O-])[O-])[C@@H](NC(=O)c4ccccc4)c4ccccc4)C(C)=C1C3(C)C)[C@]1(OC(C)=O)CO[C@@H]1C[C@@H]2O.[Na+].[Na+],Max T/C,Mus musculus [2],140
CC(=O)O[C@H]1C(=O)[C@@]2(C)[C@H]([C@H](OC(=O)c3ccccc3)[C@]3(O)C[C@H](OC(=O)[C@H](OP(=O)(OCc4ccccc4)OCc4ccccc4)[C@@H](NC(=O)c4ccccc4)c4ccccc4)C(C)=C1C3(C)C)[C@]1(OC(C)=O)CO[C@@H]1C[C@@H]2O,Max T/C,Mus musculus [3],107
CC(=O)O[C@@]12CO[C@@H]1C[C@H](O)[C@@]1(C)C(=O)[C@H](O)C3=C(C)[C@@H](OC(=O)[C@H](O)[C@@H](NC(=O)OC(C)(C)C)c4ccccc4)C[C@@](O)([C@@H](OC(=O)c4ccccc4)[C@H]21)C3(C)C.O.O.O [DOCETAXEL],solubility,[4],6 µg/mL
CC(=O)O[C@H]1C(=O)[C@@]2(C)[C@H]([C@H](OC(=O)c3ccccc3)[C@]3(O)C[C@H](OC(=O)[C@H](O)[C@@H](NC(=O)c4ccccc4)c4ccccc4)C(C)=C1C3(C)C)[C@]1(OC(C)=O)CO[C@@H]1C[C@@H]2O [PACLITAXEL],solubility,[5],0.25 µg/mL
same,Max T/C,Mus musculus [6],270
same,Max T/C,Mus musculus [7],240
same,Max T/C,Mus musculus [8],190
same,Max T/C,Mus musculus [3],270
same,Max T/C,Mus musculus [9],240
same,Max T/C,Mus musculus [10],190
CC(=O)O[C@H]1C(=O)[C@]2(C)[C@@H](OP(=O)([O-])[O-])C[C@H]3OC[C@@]3(OC(C)=O)[C@H]2[C@H](OC(=O)c2ccccc2)[C@]2(O)C[C@H](OC(=O)[C@H](O)[C@@H](NC(=O)c3ccccc3)c3ccccc3)C(C)=C1C2(C)C.[Na+].[Na+],Max T/C,Mus musculus [11],123
